# Laboratory results reported in PMC12064818, “A general assay platform to study protein pharmacology using ligand-dependent structural dynamics” (Nature Communications, 2025).
# Target: T1, FLuc-C-HiBiT (Photinus pyralis, UniProt P08659)
# T1 construct: firefly luciferase with C-terminal HiBiT tag, E. coli expressed
# Test: biochemical
# Settings: enzyme activity, 10 uM ATP; read-out: IC50 or SDR50 (mM) / FLuc E
# T1 sequence (P08659 whole entry, looked up): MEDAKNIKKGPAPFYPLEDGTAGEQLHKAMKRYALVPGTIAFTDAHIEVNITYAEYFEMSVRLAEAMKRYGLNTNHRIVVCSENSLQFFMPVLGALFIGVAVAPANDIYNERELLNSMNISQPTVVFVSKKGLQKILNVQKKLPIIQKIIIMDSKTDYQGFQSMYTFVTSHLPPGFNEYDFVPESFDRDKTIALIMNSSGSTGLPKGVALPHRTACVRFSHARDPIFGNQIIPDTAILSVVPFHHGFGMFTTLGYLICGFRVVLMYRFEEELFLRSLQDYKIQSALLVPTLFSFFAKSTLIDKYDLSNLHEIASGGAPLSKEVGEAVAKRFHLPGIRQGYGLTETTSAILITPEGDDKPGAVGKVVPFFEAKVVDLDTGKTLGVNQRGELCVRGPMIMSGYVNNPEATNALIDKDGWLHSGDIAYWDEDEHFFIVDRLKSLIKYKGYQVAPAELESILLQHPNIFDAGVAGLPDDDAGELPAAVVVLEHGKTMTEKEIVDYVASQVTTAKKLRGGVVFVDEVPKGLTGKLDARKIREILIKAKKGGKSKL
row,Compound,IC50
1,O=C(NC[C@H]1Cn2cc(-c3ccc4c(c3)OCCCO4)nc2CO1)c1ccc2c(c1)OCO2 [NCGC00392108-01],0.00989 mM
2,O=C(Nc1cnc(-c2ccccc2)nc1)C1CCCCC1 [NCGC00432861-01],0.00197 mM
3,Cc1ccc(-n2ncc3c(N4CCC(Cc5ccccc5)CC4)ncnc32)cc1C [NCGC00139123-01],> 0.03 mM
4,O=C(Nc1ccc2c(c1)OCCO2)N1CCC(c2nc(C3CCOCC3)no2)CC1 [NCGC00453474-01],0.0111 mM
5,COc1cccc(CN2CCNc3cc(Nc4ccccc4)ncc3C2)c1 [NCGC00411172-01],0.018 mM
6,O=C(COc1ccccc1)Nc1nnc([S+](=O)([O-])Nc2ccccc2)s1 [NCGC00120845-01],0.014 mM
7,COc1ccc(-c2ncc3c(n2)OCCN(C)C3=O)cc1F [NCGC00413447-01],0.018 mM
8,O=C(/C=C/c1ccccc1)Nc1cc(-c2nc3cc(Cl)ccc3o2)ccc1Cl [NCGC00102391-01],> 0.03 mM
9,Cc1nn(-c2ccc(C(C)(C)C)cc2)c(C)c1[C@@H]1C=C[C@@H](NC(=O)COCC(=O)O)C1 [NCGC00400262-01],0.0202 mM
10,COc1ccc(CC(=O)Nc2ccc(-c3nc4ccccc4s3)cc2Cl)cc1OC [NCGC00137804-01],> 0.03 mM
11,CCCOC(=O)CSc1ncnc2sc3c(c12)CCC(C)C3 (stereo not shown) [NCGC00100112-01],0.0111 mM
12,COc1ccc(-c2cc(N3CCCC(NC(=O)c4ccncc4)C3)[nH]n2)cc1 (stereo not shown) [NCGC00437632-01],0.0111 mM
13,Cc1csc(NC(=O)c2ccc3c(c2)OCC(=O)N(C)C3)n1 [NCGC00418513-01],0.018 mM
14,NC(=O)COC(=O)c1ccccc1-c1nc2ccccc2s1 [NCGC00641952-01],> 0.03 mM
15,Cc1ccc2nc(-c3ccc(NC(=O)C(F)(F)F)cc3)sc2c1 [NCGC00100068-01],0.000785 mM
16,O=C1C[C@H]2CC[C@@H](CN1)N2Cc1ccc(OCc2ccccc2)cc1 [NCGC00434033-01],0.014 mM
17,CCc1ccccc1NC(=O)c1nnn(-c2ccc(F)cc2)c1C [NCGC00104938-01],0.0111 mM
18,Cc1nnc(CN(C)c2ccc(-c3nc(-c4cccc(Cl)c4)no3)cn2)o1 [NCGC00427683-01],0.00495 mM
19,CCOC(=O)c1ccc(NC(=O)c2csc3c2CCCC3)cc1 [NCGC00112858-01],0.0157 mM
20,COc1ccc(-c2ncc3c(n2)OCCN(c2ccccc2)C3=O)cc1F [NCGC00413523-01],0.00321 mM
21,CCOc1ccccc1C(=O)Nc1cccc(-c2nc3ccccc3s2)c1 [NCGC00119161-01],0.0111 mM
22,Cc1ccccc1Cn1cccc(C(=O)Nc2nc3ccccc3s2)c1=O [NCGC00134725-01],0.000881 mM

row,Compound,IC50
1,CCCn1c(C)cnc1CC1CCN(C(=O)C2(c3ccc(OC)cc3)CC2)C1 (stereo not shown) [NCGC00464172-01],> 0.03 mM
2,COc1cccc(C(=O)NCCn2ccn3nc(-c4ccc(C)cc4C)cc3c2=O)c1OC [NCGC00456963-01],0.00989 mM
3,COc1ccc(-n2nc3ccc(NC(=O)c4c(OC)cccc4OC)cc3n2)cc1 [NCGC00103168-01],> 0.03 mM
4,CN(C1CCc2ccccc2C1)[S+](=O)([O-])c1cccs1 (stereo not shown) [NCGC00480121-01],> 0.03 mM
5,Cn1c([C@H]2CCN(C3CCCCC3)C2)nc2ccccc21 [NCGC00394901-01],0.0254 mM
6,CC(C)c1nc2c(c(-c3ccc(O)cc3)n1)CCN(Cc1ccccn1)CC2 [NCGC00480326-01],> 0.03 mM
7,CCOC1CCCN(c2ncnc3c2cnn3-c2ccccc2)C1 (stereo not shown) [NCGC00616559-01],0.00989 mM
8,O=C(Nc1nc2c(F)cccc2s1)c1ccc2c(c1)OCCO2 [NCGC00141660-01],0.000495 mM
9,Cc1nnn2c(C(=O)NC3CC3)cccc12 [NCGC00477171-01],0.0254 mM
10,CCNC(=O)N[C@@H]1C=C[C@@H](c2c(C)nn(-c3ccc(C(C)C)cc3)c2C)C1 [NCGC00399948-01],0.00286 mM
11,CC(C)n1cc2cc(C(=O)Nc3ccc4c(c3)OCCO4)sc2c1 [NCGC00470606-01],0.00989 mM
12,NC(=O)C1CCCN(c2ncnc3c2cnn3-c2ccccc2)C1 (stereo not shown) [NCGC00644764-01],0.0111 mM
13,Fc1cccc(-c2cnc(Nc3ccc(N4CCOCC4)cc3)c3c2CCO3)c1 [NCGC00412721-01],0.0161 mM
14,c1ccc(-c2noc(-c3ccc4ccccc4c3)n2)cc1 [NCGC00045018-01],0.0007 mM
15,CC(=O)N1CCCN(c2ccc(-c3nc(-c4ccccc4F)no3)cn2)CC1 [NCGC00426241-01],0.0157 mM
16,O=C(COc1ccc(Cl)cc1)Nc1ccc(-c2nc3cc(Cl)ccc3o2)c(O)c1 [NCGC00099397-01],0.007 mM
17,O=C1c2cnc(-c3ccccc3)nc2OCCN1CC1CC1 [NCGC00413518-01],0.0161 mM
18,Cc1ccc(-n2nc(C)c([C@@H]3C=C[C@@H](NC(=O)NCc4ccccc4)C3)c2C)cc1Cl [NCGC00399961-01],0.018 mM
19,CCSc1ccc(C(=O)Nc2ccc(-c3nc4ccc(C)cc4s3)cc2)cc1 [NCGC00134697-01],> 0.03 mM
20,c1ccc(-c2ccnc(NCCc3c[nH]c4ccccc34)n2)nc1 [NCGC00446312-01],0.0197 mM
21,Clc1ccc(Nc2ncc(-c3cccnc3)c3c2OCC3)cc1 [NCGC00412736-01],0.018 mM
22,Oc1ccc(-c2nc3ccccn3c2Nc2ccc3c(c2)OCCO3)cc1 [NCGC00106600-01],0.0176 mM

row,Compound,IC50
1,CCOC(=O)N1CCc2c(sc(NCc3cccs3)c2C(=O)Nc2ccc(OC)cc2OC)C1 [NCGC00140799-01],0.00313 mM
2,COc1ccc(C(=O)Nc2cccc(-c3nc4ccccc4s3)c2)cc1 [NCGC00596810-02],> 0.03 mM
3,CN(C)c1cccc(C(=O)NC2CCN(c3cc(-c4ccccc4)n[nH]3)C2)c1 (stereo not shown) [NCGC00437846-01],0.007 mM
4,CNC(=O)c1cccc(-c2cnc(NC(=O)c3ccncc3)c3c2CCO3)c1 [NCGC00412795-01],0.0202 mM
5,CSCC(=O)Nc1nn(-c2ccc(F)cc2)c2cccc(N3CCOCC3)c12 [NCGC00439780-01],0.00989 mM
6,Cc1ccc2nc(-c3cccc(NC(=O)CSc4ccc(Cl)cc4)c3)oc2c1 [NCGC00102431-01],0.00351 mM
7,Cc1ccc(CN2CCc3nc(C(=O)Nc4ccccc4)oc3CC2)cc1 [NCGC00413255-01],0.0161 mM
8,CCOc1ccccc1C(=O)Nc1nc2c(s1)CC(C)CC2 (stereo not shown) [NCGC00119172-01],0.00442 mM
9,O=C(O)C1CN(Cc2ccc(-c3nc4cc(Cc5ccccc5F)ccc4s3)c(F)c2)C1 [NCGC00379113-01],> 0.03 mM
10,O=C(Nc1ccc([C@H]2OCC(=O)N(Cc3ccncc3)[C@@H]2CO)cc1)c1ccc(C(F)(F)F)cc1 [NCGC00395114-01],0.0111 mM
11,O=C(COc1ccccc1F)Nc1ccc(-c2nc3ccccc3s2)cc1 [NCGC00118994-02],> 0.03 mM
12,CCOc1ccc(C(=O)Nc2ccc(-c3nc4ccccc4s3)c(C)c2)cc1OCC [NCGC00137842-01],> 0.03 mM
13,CCc1ccc(-c2nc(CSCC(=O)NCc3ccc(C)cc3)c(C)o2)cc1 [NCGC00109429-01],0.014 mM
14,COc1cccc(Nc2cc3c(cn2)CN(C)CCN3)c1 [NCGC00411064-01],0.0226 mM
15,COc1ccc2c(c1)C1(CCN(C(=O)Nc3ccc4c(c3)OCCO4)C1)C(=O)N2C (stereo not shown) [NCGC00435246-01],0.0111 mM
16,O=C(Nc1ccc2c(c1)OCCO2)N1CCCC(c2nc(C3CCOCC3)no2)C1 (stereo not shown) [NCGC00475594-01],0.0111 mM
17,Cc1ccccc1-c1noc(-c2ccc(N3CCCC3)c([N+](=O)[O-])c2)n1 [NCGC00119417-01],0.0111 mM
18,CN1CCN(C[C@@H]2CN(C(=O)CCCc3ccccc3)C[C@@H]2CO)CC1 [NCGC00435815-01],> 0.03 mM
19,CCOc1ccc(-c2cc3c(=O)n(CCNC(=O)c4cccc(N(C)C)c4)ccn3n2)cc1 [NCGC00456949-01],0.00394 mM
20,COc1ccc(-c2nc3ccccc3o2)cc1NC(=O)c1cccnc1 [NCGC00103240-01],0.0124 mM
21,Fc1ccccc1Cc1cn2cc(-c3ccc(Cl)cc3)nc2s1 [NCGC00102106-01],0.00157 mM
22,c1ccc2cc(-c3nc(C4CCOC4)no3)ncc2c1 (stereo not shown) [NCGC00447332-01],0.0176 mM

row,Compound,IC50
1,COc1cccc(-c2cc3c(=O)n(CCNC(=O)C4CCN(C(C)=O)CC4)ccn3n2)c1 [NCGC00457070-01],0.0124 mM
2,O=C(Nc1ccccc1)c1nc2c(o1)CCN(Cc1ccc(F)cc1)CC2 [NCGC00413289-01],0.018 mM
3,CN(CCO)c1ccc(-c2nc(CCCc3ccccc3)no2)cn1 [NCGC00438483-01],0.0124 mM
4,Cc1ccc(Nc2ncnc3c2nc2n3CCCC2)c(Br)c1 [NCGC00124653-01],0.00495 mM
5,Cc1ccc(-c2nnc(C3CN(C(=O)c4sc(C)nc4C)CC34CCOCC4)o2)cc1 (stereo not shown) [NCGC00471668-01],> 0.03 mM
6,Cc1c(Cl)cccc1-n1nnc(-c2nc(-c3ccc4c(c3)OCO4)no2)c1C [NCGC00128638-01],0.0111 mM
7,CC(C)n1cnnc1CC1CCN(C(=O)Nc2ccc3c(c2)OCCO3)CC1 [NCGC00456228-01],0.00989 mM
8,COc1ccc(-c2cc(N3CCCC(NC(=O)c4ccc(OC)cc4OC)C3)[nH]n2)cc1 (stereo not shown) [NCGC00437622-01],0.0111 mM
9,COc1ccc(-c2nc3ccccc3s2)cc1NC(=O)COc1ccccc1C [NCGC00103036-01],> 0.03 mM
10,c1cncc(Nc2cc3c(cn2)CN(Cc2c[nH]cn2)CCN3)c1 [NCGC00411246-03],> 0.03 mM
11,Cc1ccc(C(=O)COC(=O)c2cc(-c3cccs3)nc3ccccc23)cc1 [NCGC00100788-01],0.0124 mM
12,CCCC(=O)N1CCN(c2nc3ccc(F)cc3s2)CC1 [NCGC00137065-01],0.0111 mM
13,O=C(Nc1ccc2c(c1)OCCO2)N1CC(c2nc(CCOCC3CC3)no2)C1 [NCGC00464361-01],0.00989 mM
14,COc1ccc2nc(-c3ccc(Oc4ccccc4)cc3)sc2c1 [NCGC00167605-01],0.0111 mM
15,OC(c1nc(Nc2ccc(Oc3ccccc3)cc2)n[nH]1)C1CC1 (stereo not shown) [NCGC00411906-01],0.0202 mM
16,COc1ccc(N2CCN(C(=O)c3noc(-c4ccc(C)cc4)n3)CC2)cc1 [NCGC00447127-01],0.00989 mM
17,Cc1c(C(=O)NCc2cccc(Br)c2)oc2ccc3c(c12)C(=O)CC(C)(C)O3 [NCGC00113428-01],0.0111 mM
18,O=C1c2cnc(-c3cccc(CO)c3)nc2OCCN1c1ccccc1 [NCGC00413559-01],0.0114 mM
19,O=C(Nc1cccc(-c2ccc(N3CCOCC3)nn2)c1)Nc1ccccc1F [NCGC00427598-01],0.00279 mM
